# Source: patent US9109004B2, “Progesterone receptor antagonists” (Bayer Intellectual Property GmbH, priority 2010, dated 2015)
# Molecular target: T1, human progesterone receptor A (Homo sapiens, UniProt P06401)
# T1 construct: expressed in transfected cells; host or cells: SK-N-MC human neuroblastoma cells, stably transfected
# T1 sequence (P06401 1-769 isoform P06401-2): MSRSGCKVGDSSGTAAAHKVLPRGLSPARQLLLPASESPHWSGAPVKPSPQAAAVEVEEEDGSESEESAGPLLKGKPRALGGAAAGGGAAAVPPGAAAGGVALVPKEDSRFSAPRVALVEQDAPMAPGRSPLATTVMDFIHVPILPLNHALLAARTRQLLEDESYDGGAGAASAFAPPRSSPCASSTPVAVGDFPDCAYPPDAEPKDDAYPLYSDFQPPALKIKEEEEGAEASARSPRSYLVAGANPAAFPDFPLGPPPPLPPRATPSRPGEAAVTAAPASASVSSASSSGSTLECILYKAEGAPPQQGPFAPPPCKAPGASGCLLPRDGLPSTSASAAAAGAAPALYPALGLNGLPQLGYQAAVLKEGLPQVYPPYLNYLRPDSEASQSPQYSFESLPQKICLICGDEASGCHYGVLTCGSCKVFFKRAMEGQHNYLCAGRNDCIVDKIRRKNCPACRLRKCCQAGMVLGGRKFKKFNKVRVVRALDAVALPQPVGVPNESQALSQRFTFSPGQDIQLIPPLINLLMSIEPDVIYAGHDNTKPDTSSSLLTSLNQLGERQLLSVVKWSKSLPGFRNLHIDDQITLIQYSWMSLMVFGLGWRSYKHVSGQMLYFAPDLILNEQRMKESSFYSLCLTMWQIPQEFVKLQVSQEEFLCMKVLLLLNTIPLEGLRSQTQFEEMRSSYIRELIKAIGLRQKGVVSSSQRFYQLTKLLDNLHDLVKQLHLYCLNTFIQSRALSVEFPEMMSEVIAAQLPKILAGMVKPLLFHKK
# Experiment: Progesterone-receptor-antagonistic action in stably transfected SK-N-MC cells, MTV-LUC reporter (PR-A)
# Type: cell-based
# Conditions: antagonistic potency vs 0.1 nmol/l promegestone, 24 hours, luciferase
# Protocol: Progesterone-Receptor-Antagonistic Action in Stable Transfectants of Human Neuroblastoma Cells (SK-N-MC Cells) with the Human Progesterone A or Progesterone B Receptor and an MTV-LUC Reporter Construct
# SK-N-MC cells (human neuroblastoma cells) that have been stably transfected with plasmids that express the human progesterone receptor B (pRChPR-B-neo) or the human progesterone receptor A (pRChPR-A-neo) and a reporter construct (pMMTV-LUC), were incubated for 24 hours either in the absence (negative control) or in the presence of increasing amounts of the particular test compound (0.01 nmol/l, 0.1 nmol/l, 1 nmol/l, 10 nmol/l, 100 nmol/l and 1 μmol/l), to determine the agonistic efficacy. As positive control of reporter gene induction, the cells were treated with the synthetic gestagen promegestone (0.01 nmol/l, 0.1 nmol/l, 1 nmol/l, 10 nmol/l, 100 nmol/l and 1 μmol/l). For determination of the antagonistic activity, the cells were treated with 0.1 nmol/l promegestone and additionally with increasing amounts of the particular test compound (0.01 nmol/l, 0.1 nmol/l, 1 nmol/l, 10 nmol/l, 100 nmol/l and 1 μmol/l). The activity of the reporter gene LUC (LUC=luciferase) was determined in the cell lysates and was measured as RLU (relative light units). All measured values are given as % efficacy and as EC50 or IC50 concentrations.
row,IC50,Structure (SMILES)
1,9 nM,"CN(Cc1ccccc1)C(=O)c1ccc([C@H]2C[C@@]3(C)[C@@H](CC[C@@]3(O)C(F)(F)C(F)(F)F)[C@@H]3CCC4=CC(=O)CCC4=C32)cc1 [Example 51, N-benzyl-4-[(11β,17β)-17-hydroxy-3-oxo-17-(pentafluoroethyl)estra-4,9-dien-11-yl]-N-methylbenzamide]"
2,10 nM,"C[C@]12C[C@H](c3ccc(C(=O)Nc4ccccn4)cc3)C3=C4CCC(=O)C=C4CC[C@H]3[C@@H]1CC[C@@]2(O)C(F)(F)C(F)(F)F [Example 11, 4-[(11β,17β)-17-hydroxy-3-oxo-17-(pentafluoroethyl)estra-4,9-dien-11-yl]-N-(pyridin-2-yl)benzamide]"
3,2.5 nM,"C[C@]12C[C@H](c3ccc(C(=O)NCCc4cccnc4)cc3)C3=C4CCC(=O)C=C4CC[C@H]3[C@@H]1CC[C@@]2(O)C(F)(F)C(F)(F)F [Example 55, 4-[(11β,17β)-17-hydroxy-3-oxo-17-(pentafluoroethyl)estra-4,9-dien-11-yl]-N-[2-(pyridin-3-yl)ethyl]benzamide]"
4,385 nM,"CC(=O)NCCNC(=O)c1ccc([C@H]2C[C@@]3(C)[C@@H](CC[C@@]3(O)C(F)(F)C(F)(F)F)[C@@H]3CCC4=CC(=O)CCC4=C32)cc1 [Example 37, N-(2-acetamidoethyl)-4-[(11β,17β)-17-hydroxy-3-oxo-17-(pentafluoroethyl)estra-4,9-dien-11-yl]benzamide]"
5,21 nM,"C[C@]12C[C@H](c3ccc(C(=O)NCCN4CCCC4)cc3)C3=C4CCC(=O)C=C4CC[C@H]3[C@@H]1CC[C@@]2(O)C(F)(F)C(F)(F)F [Example 54, 4-[(11β,17β)-17-hydroxy-3-oxo-17-(pentafluoroethyl)estra-4,9-dien-11-yl]-N-[2-(pyrrolidin-1-yl)ethyl]benzamide]"
6,29 nM,"COc1cccc(CNC(=O)c2ccc([C@H]3C[C@@]4(C)[C@@H](CC[C@@]4(O)C(F)(F)C(F)(F)F)[C@@H]4CCC5=CC(=O)CCC5=C43)cc2)c1 [Example 53, 4-[(11β,17β)-17-hydroxy-3-oxo-17-(pentafluoroethyl)estra-4,9-dien-11-yl]-N-(3-methoxybenzyl)benzamide]"
7,10.8 nM,"CN(CCc1ccccc1)C(=O)c1ccc([C@H]2C[C@@]3(C)[C@@H](CC[C@@]3(O)C(F)(F)C(F)(F)F)[C@@H]3CCC4=CC(=O)CCC4=C32)cc1 [Example 43, 4-[(11β,17β)-17-hydroxy-3-oxo-17-(pentafluoroethyl)estra-4,9-dien-11-yl]-N-methyl-N-(2-phenylethyl)benzamide]"
8,1.6 nM,"C[C@]12C[C@H](c3ccc(C(=O)NCCc4ccccn4)cc3)C3=C4CCC(=O)C=C4CC[C@H]3[C@@H]1CC[C@@]2(O)C(F)(F)C(F)(F)F [Example 61, 4-[(11β,17β)-17-hydroxy-3-oxo-17-(pentafluoroethyl)estra-4,9-dien-11-yl]-N-[2-(pyridin-2-yl)ethyl]benzamide]"
9,28 nM,"C[C@]12C[C@H](c3ccc(C(=O)Nc4ccc(Cl)cc4)cc3)C3=C4CCC(=O)C=C4CC[C@H]3[C@@H]1CC[C@@]2(O)C(F)(F)C(F)(F)F [Example 26, N-(4-chlorophenyl)-4-[(11β,17β)-17-hydroxy-3-oxo-17-(pentafluoroethyl)estra-4,9-dien-11-yl]benzamide]"
10,14.4 nM,"C[C@]12C[C@H](c3ccc(C(=O)NCc4ccccc4)cc3)C3=C4CCC(=O)C=C4CC[C@H]3[C@@H]1CC[C@@]2(O)C(F)(F)C(F)(F)F [Example 34, N-benzyl-4-[(11β,17β)-17-hydroxy-3-oxo-17-(pentafluoroethyl)estra-4,9-dien-11-yl]benzamide]"
11,86 nM,"COc1ccccc1NC(=O)c1ccc([C@H]2C[C@@]3(C)[C@@H](CC[C@@]3(O)C(F)(F)C(F)(F)F)[C@@H]3CCC4=CC(=O)CCC4=C32)cc1 [Example 23, 4-[(11β,17β)-17-hydroxy-3-oxo-17-(pentafluoroethyl)estra-4,9-dien-11-yl]-N-(2-methoxyphenyl)benzamide]"
12,117 nM,"C[C@]12C[C@H](c3ccc(C(=O)N4CCN(Cc5ccccc5)CC4)cc3)C3=C4CCC(=O)C=C4CC[C@H]3[C@@H]1CC[C@@]2(O)C(F)(F)C(F)(F)F [Example 40, (11β,17β)-11-{4-[(4-benzylpiperazin-1-yl)carbonyl]phenyl}-17-hydroxy-17-(pentafluoroethyl)estra-4,9-dien-3-one]"
13,1.88 nM,"COC(=O)c1ccc(NC(=O)c2ccc([C@H]3C[C@@]4(C)[C@@H](CC[C@@]4(O)C(F)(F)C(F)(F)F)[C@@H]4CCC5=CC(=O)CCC5=C43)cc2)cc1 [Example 38, methyl-4-({4-[(11β,17β)-17-hydroxy-3-oxo-17-(pentafluoroethyl)estra-4,9-dien-11-yl]benzoyl}amino)benzoate]"
14,667 nM,"C[C@]12C[C@H](c3ccc(C(=O)N4CCN(CCN5CCCC5)CC4)cc3)C3=C4CCC(=O)C=C4CC[C@H]3[C@@H]1CC[C@@]2(O)C(F)(F)C(F)(F)F [Example 48, (11β,17β)-17-hydroxy-17-(pentafluoroethyl)-11-[4-({4-[2-(pyrrolidin-1-yl)ethyl]piperazin-1-yl}carbonyl)phenyl]estra-4,9-dien-3-one]"
15,20 nM,"C[C@]12C[C@H](c3ccc(C(=O)NCc4ccc(Cl)cc4)cc3)C3=C4CCC(=O)C=C4CC[C@H]3[C@@H]1CC[C@@]2(O)C(F)(F)C(F)(F)F [Example 36, N-(4-chlorobenzyl)-4-[(11β,17β)-17-hydroxy-3-oxo-17-(pentafluoroethyl)estra-4,9-dien-11-yl]benzamide]"
16,2.3 nM,"C[C@]12C[C@H](c3ccc(C(=O)NCc4cccc(Cl)c4)cc3)C3=C4CCC(=O)C=C4CC[C@H]3[C@@H]1CC[C@@]2(O)C(F)(F)C(F)(F)F [Example 56, N-(3-chlorobenzyl)-4-[(11β,17β)-17-hydroxy-3-oxo-17-(pentafluoroethyl)estra-4,9-dien-11-yl]benzamide]"
17,6.98 nM,"CN(Cc1ccncc1)C(=O)c1ccc([C@H]2C[C@@]3(C)[C@@H](CC[C@@]3(O)C(F)(F)C(F)(F)F)[C@@H]3CCC4=CC(=O)CCC4=C32)cc1 [Example 33, 4-[(11β,17β)-17-hydroxy-3-oxo-17-(pentafluoroethyl)estra-4,9-dien-11-yl]-N-methyl-N-(pyridin-4-ylmethyl)benzamide]"
18,133 nM,"CCN(CC)C(=O)c1ccc([C@H]2C[C@@]3(C)[C@@H](CC[C@@]3(O)C(F)(F)C(F)(F)F)[C@@H]3CCC4=CC(=O)CCC4=C32)cc1 [Example 27, N,N-diethyl-4-[(11β,17β)-17-hydroxy-3-oxo-17-(pentafluoroethyl)estra-4,9-dien-11-yl]benzamide]"

row,Structure (SMILES),IC50
1,"C[C@]12C[C@H](c3ccc(C(=O)NCc4ccc(S(N)(=O)=O)cc4)cc3)C3=C4CCC(=O)C=C4CC[C@H]3[C@@H]1CC[C@@]2(O)C(F)(F)C(F)(F)F [Example 18, 4-[(11β,17β)-17-hydroxy-3-oxo-17-(pentafluoroethyl)estra-4,9-dien-11-yl]-N-(4-sulphamoylbenzyl)benzamide]",4.7 nM
